Values after ≈ are worked out from the molar mass of the structure shown. One block for each compound: values may come before it. Residues, ends and D or L forms follow the SMILES beside them.
Key:
[1] = Binding affinity to c-Src (unknown origin) assessed as inhibition constant by fluorescence based assay; design: species or system Homo sapiens
[2] = Binding affinity to c-Abl (unknown origin) assessed as inhibition constant by fluorescence based assay; design: species or system Homo sapiens
HeLa = experiment: Cytostatic activity against human HeLa cells measured for 72 hrs; format: functional; settings: read-out: ED50 (the source's name)
Histone deacetylase = experiment: Inhibition of HDAC extracted from human HeLa cell nuclear extract by fluorescence assay; format: subcellular, Nucleus
EMT6 [3] = experiment: Anticancer activity against mouse EMT6 cells assessed as reduction in cell viability incubated for 48 hrs by XTT assay; format: functional, cell-based; settings: EMT6, 48 h
EMT6 [4] = experiment: Anticancer activity against mouse EMT6 cells assessed as reduction in cell viability at 100 uM incubated for 48 hrs by XTT assay relative to control; format: functional
[5] = biological target: Human immunodeficiency virus type 1 reverse transcriptase (Human immunodeficiency virus 1, UniProt Q72547); experiment: Binding affinity to HIV-1 reverse transcriptase assessed as dissociation constant
[6] = Inhibition of bovine pancrease trypsin-catalyzed proteolysis of chromogenic substrate Boc-QAR-pNA; design: species or system Bos taurus
A549 = experiment: Cytotoxicity against human A549 cells assessed as reduction in cell viability incubated for 24 hrs by MTT assay; format: functional, cell-based; settings: A549, 24 h
HepG2 = experiment: Cytotoxicity against human HepG2 cells assessed as reduction in cell viability incubated for 24 hrs by MTT assay; format: functional, cell-based; settings: HepG2, 24 h
MDA-MB-231 = experiment: Cytotoxicity against human MDA-MB-231 cells assessed as reduction in cell viability incubated for 24 hrs by MTT assay; format: functional, cell-based; settings: MDA-MB-231, 24 h
[7] = biological target: Acetylcholine-binding protein (Lymnaea stagnalis, UniProt P58154); experiment: Binding affinity to Lymnaea stagnalis Acetylcholine-binding protein assessed as dissociation constant
Sequence of Acetylcholine-binding protein (P58154 whole entry): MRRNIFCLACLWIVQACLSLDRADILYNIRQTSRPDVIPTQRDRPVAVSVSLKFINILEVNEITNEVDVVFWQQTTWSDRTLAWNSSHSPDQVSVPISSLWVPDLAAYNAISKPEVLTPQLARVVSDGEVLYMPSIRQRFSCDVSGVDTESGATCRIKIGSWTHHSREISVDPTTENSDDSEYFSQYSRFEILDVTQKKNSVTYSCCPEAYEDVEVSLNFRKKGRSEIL

[8] = Binding affinity to Aplysia californica Acetylcholine-binding protein assessed as dissociation constant
[9] = Binding affinity to Aplysia californica Y55W Acetylcholine-binding protein assessed as dissociation constant
D-amino-acid oxidase = D-amino-acid oxidase (Homo sapiens, UniProt P14920); experiment: Binding affinity to human DAO assessed as inhibition constant
Sequence of D-amino-acid oxidase (P14920 whole entry): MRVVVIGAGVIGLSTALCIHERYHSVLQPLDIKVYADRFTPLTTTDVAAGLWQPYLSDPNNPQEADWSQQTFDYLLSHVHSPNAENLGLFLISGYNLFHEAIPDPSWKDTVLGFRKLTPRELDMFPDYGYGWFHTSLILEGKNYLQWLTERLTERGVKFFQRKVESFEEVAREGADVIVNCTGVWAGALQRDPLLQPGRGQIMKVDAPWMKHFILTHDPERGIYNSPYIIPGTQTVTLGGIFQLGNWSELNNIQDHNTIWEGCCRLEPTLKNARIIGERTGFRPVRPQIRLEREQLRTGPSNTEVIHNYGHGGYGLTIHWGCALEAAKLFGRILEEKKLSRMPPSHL

SW480 = experiment: Anticancer activity against human SW480 cells assessed as reduction in cell viability incubated for 48 hrs by XTT assay; format: functional, cell-based; settings: SW480, 48 h
Staphylococcus aureus = experiment: Antibacterial activity against Staphylococcus aureus assessed as reduction in microbial growth by CLSI based broth microdilution method; format: functional
Escherichia coli = experiment: Antibacterial activity against Escherichia coli assessed as reduction in microbial growth by CLSI based broth microdilution method; format: functional
[10] = biological target: C-X-C chemokine receptor type 4 (Homo sapiens, UniProt P61073); experiment: Displacement of 125I-CXCL12 from CXCR4 in human CCRF-CEM cells by competitive binding assay; format: cell-based
Sequence of C-X-C chemokine receptor type 4 (P61073 whole entry): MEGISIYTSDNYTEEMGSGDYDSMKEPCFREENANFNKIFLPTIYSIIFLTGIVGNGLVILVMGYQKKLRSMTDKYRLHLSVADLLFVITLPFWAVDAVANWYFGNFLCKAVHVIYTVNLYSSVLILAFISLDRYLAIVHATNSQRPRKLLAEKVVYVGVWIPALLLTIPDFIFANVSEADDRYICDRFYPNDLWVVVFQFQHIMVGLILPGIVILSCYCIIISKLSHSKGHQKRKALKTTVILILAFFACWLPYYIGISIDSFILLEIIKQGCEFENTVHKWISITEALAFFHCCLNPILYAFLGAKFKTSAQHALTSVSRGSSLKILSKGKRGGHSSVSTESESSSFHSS

[11] = Inhibition of bovine pancrease trypsin by microplate reader analysis; design: species or system Bos taurus

- Ki [1]: 0.044 µM
- Ki [2]: > 125 µM
SMILES: Nc1ncnc2c1c(-c1ccc(Cl)cc1)nn2-c1cccc(-c2cnnn2Cc2cccc(-c3ccccc3)c2)c1

SMILES: CC(=O)OC[C@H]1O[C@@H](n2cc(CBr)nn2)[C@H](OC(C)=O)[C@@H](OC(C)=O)[C@@H]1OC(C)=O
- EC50 (HeLa): 3.5 µg/mL (≈ 7.11 µM)

SMILES: CC(=O)OC[C@H]1O[C@@H](n2cc(CI)nn2)[C@H](OC(C)=O)[C@@H](OC(C)=O)[C@@H]1OC(C)=O
- EC50 (HeLa): 2 µg/mL (≈ 3.71 µM)

SMILES: CC(=O)OC[C@H]1O[C@@H](n2nncc2CBr)[C@H](OC(C)=O)[C@@H](OC(C)=O)[C@@H]1OC(C)=O
- EC50 (HeLa): 4 µg/mL (≈ 8.13 µM)

- IC50 (Histone deacetylase): < 0.1 µM
SMILES: CCC(=O)CCCCC[C@@H]1NC(=O)[C@@H](C(C)(C)C)n2cc(nn2)[C@H]([C@@H](C)CC)NC(=O)[C@H](Cc2c[nH]c3ccccc23)NC1=O

SMILES: CC1(C)CC[C@]2(C(=O)OCc3cnnn3-c3ccc([N+](=O)[O-])cc3)CC[C@]3(C)C(=CC[C@@H]4[C@@]5(C)CC[C@H](O)C(C)(C)[C@@H]5CC[C@]43C)[C@@H]2C1
- IC50 (EMT6 [3]): 74 µM
- Activity (EMT6 [4]): 74%

- Kd [5]: 3.3 µM
SMILES: N[C@H]1C[C@@H](N)[C@H](OCc2cnnn2CC(=O)c2ccc(-c3ccccc3)cc2)C1

- Ki [6]: 0.00148 µM
SMILES: CC[C@H](C)[C@@H]1NC(=O)[C@@H]2CCCN2C(=O)[C@@H]2CCCN2C(=O)[C@H]([C@@H](C)CC)NC(=O)[C@H](CO)NC(=O)[C@H](CCCCN)NC(=O)[C@@H]([C@H](C)O)NC(=O)[C@@H](NC(=O)[C@H](CCCNC(=N)N)NC(=O)CN)CSSC[C@@H](C(=O)N[C@@H](Cc2ccccc2)C(=O)N2CCC[C@H]2C(=O)N[C@@H](CC(=O)O)C(=O)O)NC1=O

SMILES: O=C(Nc1ccccc1)[C@@H]1C[C@H]2CCc3cnnn3CCOc3cccc(c3)C(=O)N1C2
- IC50 (A549): 46.3 µM
- IC50 (HepG2): 36.3 µM
- IC50 (MDA-MB-231): 43.7 µM

SMILES: NC(=O)[C@@H]1C[C@H]2CCc3cnnn3CCOc3cccc(c3)C(=O)N1C2
- IC50 (A549): 41.3 µM
- IC50 (HepG2): 34.7 µM
- IC50 (MDA-MB-231): 28 µM

- Ki [1]: 1.45 µM
- Ki [2]: 7.15 µM
SMILES: C#Cc1cccc(-n2nc(-c3ccc(Cl)cc3)c3c(N)ncnc32)c1

- Kd [5]: 1.9 µM
SMILES: N[C@H]1C[C@@H](N)[C@H](OCc2cnnn2CC(=O)c2ccc3ccccc3c2)C1

- Kd [7]: 0.00096 µM
- Kd [8]: 0.024 µM
- Kd [9]: 0.017 µM
SMILES: Cn1c(=O)cc(OCc2cn(C3CC4CC3[N+]4(C)C)nn2)c2ccccc21 (stereo unspecified)

SMILES: Cc1cccc(-n2nncc2COC(=O)[C@]23CCC(C)(C)C[C@H]2C2=CC[C@@H]4[C@@]5(C)CC[C@H](O)C(C)(C)[C@@H]5CC[C@@]4(C)[C@]2(C)CC3)c1
- IC50 (EMT6 [3]): 60 µM

SMILES: CC(C)CNC(=O)[C@@H]1C[C@H]2CCc3cnnn3CCOc3cccc(c3)C(=O)N1C2
- IC50 (A549): 32.2 µM
- IC50 (HepG2): 37.3 µM
- IC50 (MDA-MB-231): 43.2 µM

- Ki [6]: 0.0024 µM
SMILES: CC[C@H](C)[C@@H]1NC(=O)[C@@H]2CCCN2C(=O)[C@@H]2CCCN2C(=O)[C@H]([C@@H](C)CC)NC(=O)[C@H](CO)NC(=O)[C@H](CCCCN)NC(=O)[C@@H]([C@H](C)O)NC(=O)[C@@H](NC(=O)[C@H](CCCNC(=N)N)NC(=O)CN)CCn2nncc2C[C@@H](C(=O)N[C@@H](Cc2ccccc2)C(=O)N2CCC[C@H]2C(=O)N[C@@H](CC(=O)O)C(=O)O)NC1=O

- Ki (D-amino-acid oxidase): 0.4 µM
SMILES: O=C(Cn1nncc1CO/N=C(/Cc1ccc(O)cc1)C(=O)O)N[C@@H](Cc1ccccc1)C(=O)O

SMILES: CC1(C)CC[C@]2(C(=O)OCc3cn(-c4ccc(Cl)cc4)nn3)CC[C@]3(C)C(=CC[C@@H]4[C@@]5(C)CC[C@H](O)C(C)(C)[C@@H]5CC[C@]43C)[C@@H]2C1
- IC50 (EMT6 [3]): 91.8 µM
- IC50 (SW480): 76 µM

SMILES: CC[C@H]1COC(=O)C[C@@H](O)[C@H](C)[C@@H](O[C@@H]2OC[C@@H](O)[C@H](N(C)C)[C@H]2O)[C@@H](CN(Cc2ccccc2)Cc2cnnn2-c2cnc3ccccc3c2)C[C@@H](C)C(=O)/C=C/C(C)=C/[C@@H]1CO
- MIC (Staphylococcus aureus): 4 µg/mL
- MIC (Escherichia coli): 464 µg/mL

- Kd [7]: 0.00164 µM
- Kd [8]: 0.331 µM
- Kd [9]: 0.0981 µM
SMILES: Cn1c(=O)cc(OCc2cnnn2C2C[C@@H]3C[C@H]2[N+]3(C)C)c2ccccc21 (stereo partly specified)

- Ki [1]: 0.207 µM
- Ki [2]: > 125 µM
SMILES: Nc1ncnc2c1c(-c1ccc(Cl)cc1)nn2-c1cccc(-c2cnnn2Cc2ccccc2)c1

- Ki (D-amino-acid oxidase): 0.001 µM
SMILES: [N-]=[N+]=NCC(=O)N[C@@H](Cc1ccccc1)C(=O)O

SMILES: O=C(O)[C@@H]1C[C@H]2CCc3cnnn3CCOc3cccc(c3)C(=O)N1C2
- IC50 (A549): 37.1 µM
- IC50 (HepG2): 44.9 µM
- IC50 (MDA-MB-231): 34.3 µM

- IC50 [10]: 0.022 µM
SMILES: CC(=O)N[C@@H](CCCNC(=N)N)C(=O)N[C@@H](C)C(=O)N[C@H]1CCn2nncc2C[C@@H](C(=O)O)NC(=O)[C@H](Cc2c[nH]cn2)NC(=O)[C@H](Cc2ccc3ccccc3c2)NC(=O)[C@H](CCCNC(=N)N)NC(=O)C1

- Ki [6]: 1.91 µM
SMILES: CC[C@H](C)[C@@H]1NC(=O)[C@H](CO)NC(=O)[C@@H](CCCCN)NC(=O)[C@@H]([C@H](C)O)NC(=O)[C@@H](NC(=O)[C@H](CCCNC(=N)N)NC(=O)CN)CCn2cc(nn2)C[C@@H](C(=O)N[C@@H](Cc2ccccc2)C(=O)N2CCC[C@H]2C(=O)N[C@@H](CC(=O)O)C(=O)O)NC(=O)[C@@H]([C@@H](C)CC)NC(=O)[C@@H]2CCCN2C(=O)[C@@H]2CCCN2C1=O

- Kd [5]: 3.7 µM
SMILES: N[C@H]1C[C@@H](N)[C@H](OCc2cnnn2CC(=O)c2ccc(-c3ccccn3)s2)C1

SMILES: CC1(C)CC[C@]2(C(=O)OCc3cn(-c4ccc(Br)cc4)nn3)CC[C@]3(C)C(=CC[C@@H]4[C@@]5(C)CC[C@H](O)C(C)(C)[C@@H]5CC[C@]43C)[C@@H]2C1
- IC50 (EMT6 [3]): 91.8 µM
- IC50 (SW480): 29.6 µM

- IC50 [10]: 0.018 µM
SMILES: CC(=O)N[C@@H](CCCNC(=N)N)C(=O)N[C@@H](C)C(=O)N[C@H]1CCn2cc(nn2)C[C@@H](C(=O)O)NC(=O)[C@H](Cc2c[nH]cn2)NC(=O)[C@H](Cc2ccc3ccccc3c2)NC(=O)[C@H](CCCNC(=N)N)NC(=O)C1

- Ki [11]: 0.034 µM
SMILES: CC[C@H](C)[C@@H]1NC(=O)[C@@H]2CCCN2C(=O)[C@H](C)n2nncc2[C@H]([C@@H](C)CC)NC(=O)[C@H](CO)NC(=O)CNC(=O)[C@H]([C@@H](C)O)NC(=O)[C@@H](NC(=O)[C@H](CCCNC(=N)N)NC(=O)CN)CSSC[C@@H](C(=O)N[C@@H](Cc2ccccc2)C(=O)N2CCC[C@H]2C(=O)N[C@@H](CC(=O)O)C(=O)O)NC1=O (HELM PEPTIDE1{G.R.C.T.G.S.[CC[C@H](C)[C@H](N[*:1])c1cnnn1[C@@H](C)C(=O)[*:2]].P.I.C.F.P.D}$PEPTIDE1,PEPTIDE1,3:R3-10:R3$$$V2.0)

- Ki [11]: 0.178 µM
SMILES: CC[C@H](C)[C@@H]1NC(=O)[C@H](CO)NC(=O)[C@H](CCCCN)NC(=O)[C@H]([C@@H](C)O)NC(=O)[C@@H](NC(=O)[C@H](CCCNC(=N)N)NC(=O)CN)CSSC[C@@H](C(=O)N[C@@H](Cc2ccccc2)C(=O)N2CCC[C@H]2C(=O)N[C@@H](CC(=O)O)C(=O)O)NC(=O)[C@H]([C@@H](C)CC)NC(=O)[C@@H]2CCCN2C(=O)[C@H](C)NC1=O (HELM PEPTIDE1{G.R.C.T.K.S.I.A.P.I.C.F.P.D}$PEPTIDE1,PEPTIDE1,3:R3-11:R3$$$V2.0)

- Ki [11]: 0.0032 µM
SMILES: CC[C@H](C)[C@@H]1NC(=O)[C@H](C)NC(=O)[C@@H]2CCCN2C(=O)[C@H]([C@@H](C)CC)NC(=O)[C@H](CO)NC(=O)[C@H](CCCCN)NC(=O)[C@H]([C@@H](C)O)NC(=O)[C@@H](NC(=O)[C@H](CCCNC(=N)N)NC(=O)CN)CSSC[C@@H](C(=O)N[C@@H](Cc2ccccc2)C(=O)N2CCC[C@H]2C(=O)N[C@@H](CC(=O)O)C(=O)O)NC1=O (HELM PEPTIDE1{G.R.C.T.K.S.I.P.A.I.C.F.P.D}$PEPTIDE1,PEPTIDE1,3:R3-11:R3$$$V2.0)

- Ki [11]: 0.255 µM
SMILES: CC[C@H](C)[C@@H]1NC(=O)[C@H](C)n2nncc2[C@@H]2CCCN2C(=O)[C@H]([C@@H](C)CC)NC(=O)[C@H](CO)NC(=O)[C@H](CCCCN)NC(=O)[C@H]([C@@H](C)O)NC(=O)[C@@H](NC(=O)[C@H](CCCNC(=N)N)NC(=O)CN)CSSC[C@@H](C(=O)N[C@@H](Cc2ccccc2)C(=O)N2CCC[C@H]2C(=O)N[C@@H](CC(=O)O)C(=O)O)NC1=O (HELM PEPTIDE1{G.R.C.T.K.S.I.[C[C@@H](C(=O)[*:2])n1nncc1[C@@H]1CCCN1[*:1]].I.C.F.P.D}$PEPTIDE1,PEPTIDE1,3:R3-10:R3$$$V2.0)

From ChEMBL document CHEMBL6182901, “1,5-Disubstituted 1,2,3-triazoles: Molecular scaffolds for medicinal chemistry and biomolecular mimetics” (Eur J Med Chem, 2025)
